Measurements as given in patent US11370798B2 (Vertex Pharmaceuticals Incorporated, priority 2012, dated 2022).

Test system: HCT116 colorectal cancer cells
Assay: Cisplatin sensitization assay (96 h cell viability MTS);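 further: Test-compound concentration that lowers the Cisplatin IC50 by a set fold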
Type: cell-based
Conditions: compound and Cisplatin added simultaneously, Cisplatin sensitization value
Method in brief: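 Compound and cisplatin added together as a full matrix of 2-fold serial dilutions from a top final concentration of 10 μM; cells incubated 96 h at 37° C, 5% CO2. Viability then read by MTS after 1 h further incubation; sensitization value reported in μM bins.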

Row | SMILES | Cisplatin Sensitization Assay
1 | Nc1nn2cc(F)cnc2c1C(=O)Nc1cncc(F)c1N1CCC(C(=O)N2CCN(C3CCC3)CC2)CC1 [I-G-35, 2-amino-N-(4-(4-(4-cyclobutylpiperazine-1-carbonyl)piperidin-1-yl)-5-fluoropyridin-3-yl)-6-fluoropyrazolo[1,5-a]pyrimidine-3-carboxamide] | +++ (Cisplatin sensitization value of <0.02 μM)
2 | CN1CCC(c2c(F)cncc2NC(=O)c2c(N)nn3cc(F)cnc23)CC1 [I-C-14, 2-amino-6-fluoro-N-(5-fluoro-4-(1-methylpiperidin-4-yl)pyridin-3-yl)pyrazolo[1,5-a]pyrimidine-3-carboxamide] | + (Cisplatin sensitization value>0.2 μM but <5 μM)
3 | CN1CCC(Oc2ccncc2NC(=O)c2c(N)nn3cc(CC#N)cnc23)CC1 [I-O-23, 2-amino-6-(cyanomethyl)-N-(4-((1-methylpiperidin-4-yl)oxy)pyridin-3-yl)pyrazolo[1,5-a]pyrimidine-3-carboxamide] | +++ (Cisplatin sensitization value of <0.02 μM)
4 | CC1(S(C)(=O)=O)CCN(c2ccncc2NC(=O)c2c(N)nn3cc(F)cnc23)CC1 [I-N-243, 2-amino-6-fluoro-N-(4-(4-methyl-4-(methylsulfonyl)piperidin-1-yl)pyridin-3-yl)pyrazolo[1,5-a]pyrimidine-3-carboxamide] | +++ (Cisplatin sensitization value of <0.02 μM)
5 | Nc1nn2cc(F)cnc2c1C(=O)Nc1cncc(F)c1N1CCC(C(=O)N2CC(O)C2)CC1 [I-G-41, 2-amino-6-fluoro-N-(5-fluoro-4-(4-(3-hydroxyazetidine-1-carbonyl)piperidin-1-yl)pyridin-3-yl)pyrazolo[1,5-a]pyrimidine-3-carboxamide] | +++ (Cisplatin sensitization value of <0.02 μM)
6 | Nc1nn2cc(F)cnc2c1C(=O)Nc1cnccc1N1CCN(C2COC2)C2CC21 (stereo not shown) [I-N-31, 2-amino-6-fluoro-N-(4-(5-(oxetan-3-yl)-2,5-diazabicyclo[4.1.0]heptan-2-yl)pyridin-3-yl)pyrazolo[1,5-a]pyrimidine-3-carboxamide] | + (Cisplatin sensitization value>0.2 μM but <5 μM)
7 | Nc1nn2cc(F)cnc2c1C(=O)Nc1cnccc1N1CCN(S(=O)(=O)C2CC2)CC1 [I-N-176, 2-amino-N-(4-(4-(cyclopropylsulfonyl)piperazin-1-yl)pyridin-3-yl)-6-fluoropyrazolo[1,5-a]pyrimidine-3-carboxamide] | +++ (Cisplatin sensitization value of <0.02 μM)
8 | CN(C)[C@@H]1CCN(C(=O)C2CCN(c3c(F)cncc3NC(=O)c3c(N)nn4cc(F)cnc34)CC2)C1 [I-G-11, (R)-2-amino-N-(4-(4-(3-(dimethylamino)pyrrolidine-1-carbonyl)piperidin-1-yl)-5-fluoropyridin-3-yl)-6-fluoropyrazolo[1,5-a]pyrimidine-3-carboxamide] | +++ (Cisplatin sensitization value of <0.02 μM)
9 | Cc1nc(C(F)(F)F)cn1-c1ccncc1NC(=O)c1c(N)nn2cc(F)cnc12 [I-N-30, 2-amino-6-fluoro-N-(4-(2-methyl-4-(trifluoromethyl)-1H-imidazol-1-yl)pyridin-3-yl)pyrazolo[1,5-a]pyrimidine-3-carboxamide] | ++ (Cisplatin sensitization value>0.02 μM but <0.2 μM)
10 | CC(C)N1CCN2CCN(c3ccncc3NC(=O)c3c(N)nn4cc(F)cnc34)CC2C1=O (stereo not shown) [I-N-245, 2-amino-6-fluoro-N-(4-(8-isopropyl-9-oxohexahydro-1H-pyrazino[1,2-a]pyrazin-2(6H)-yl)pyridin-3-yl)pyrazolo[1,5-a]pyrimidine-3-carboxamide] | ++ (Cisplatin sensitization value>0.02 μM but <0.2 μM)
11 | Nc1nn2cc(F)cnc2c1C(=O)Nc1cncc(F)c1N1CCC(C(=O)N2CCN(C3CC3)CC2)CC1 [I-G-13, 2-amino-N-(4-(4-(4-cyclopropylpiperazine-1-carbonyl)piperidin-1-yl)-5-fluoropyridin-3-yl)-6-fluoropyrazolo[1,5-a]pyrimidine-3-carboxamide] | +++ (Cisplatin sensitization value of <0.02 μM)
12 | Nc1nn2cc(F)cnc2c1C(=O)Nc1cncc(F)c1N1CCC(C(=O)N2CC(N3CCCCC3)C2)CC1 [I-G-57, 2-amino-6-fluoro-N-(5-fluoro-4-(4-(3-(piperidin-1-yl)azetidine-1-carbonyl)piperidin-1-yl)pyridin-3-yl)pyrazolo[1,5-a]pyrimidine-3-carboxamide] | +++ (Cisplatin sensitization value of <0.02 μM)
13 | Nc1nn2cc(F)cnc2c1C(=O)Nc1cnccc1C1CCOC1 (stereo not shown) [I-C-75, 2-amino-6-fluoro-N-(4-(tetrahydrofuran-3-yl)pyridin-3-yl)pyrazolo[1,5-a]pyrimidine-3-carboxamide] | ++ (Cisplatin sensitization value>0.02 μM but <0.2 μM)
14 | COc1ccncc1NC(=O)c1c(N)nn2cc(C(C)C#N)cnc12 (stereo not shown) [I-O-21, 2-amino-6-(1-cyanoethyl)-N-(4-methoxypyridin-3-yl)pyrazolo[1,5-a]pyrimidine-3-carboxamide] | ++ (Cisplatin sensitization value>0.02 μM but <0.2 μM)
15 | CN1CCN(CC2CCN(c3c(F)cncc3NC(=O)c3c(N)nn4cc(F)cnc34)CC2)CC1 [I-N-150, 2-amino-6-fluoro-N-(5-fluoro-4-(4-((4-methylpiperazin-1-yl)methyl)piperidin-1-yl)pyridin-3-yl)pyrazolo[1,5-a]pyrimidine-3-carboxamide] | +++ (Cisplatin sensitization value of <0.02 μM)
16 | CN1CC(OC2CCN(c3ccncc3NC(=O)c3c(N)nn4cc(F)cnc34)CC2)C1 [I-N-164, 2-amino-6-fluoro-N-(4-(4-((1-methylazetidin-3-yl)oxy)piperidin-1-yl)pyridin-3-yl)pyrazolo[1,5-a]pyrimidine-3-carboxamide] | +++ (Cisplatin sensitization value of <0.02 μM)
17 | CNc1cc(OC)c(NC(=O)c2c(N)nn3cc(F)cnc23)cn1 [I-O-90, 2-amino-6-fluoro-N-(4-methoxy-6-(methylamino)pyridin-3-yl)pyrazolo[1,5-a]pyrimidine-3-carboxamide] | + (Cisplatin sensitization value>0.2 μM but <5 μM)
18 | C[C@H]1CN(C(=O)C2CCN(c3c(F)cncc3NC(=O)c3c(N)nn4cc(F)cnc34)CC2)CCN1 [I-G-61, (S)-2-amino-6-fluoro-N-(5-fluoro-4-(4-(3-methylpiperazine-1-carbonyl)piperidin-1-yl)pyridin-3-yl)pyrazolo[1,5-a]pyrimidine-3-carboxamide] | +++ (Cisplatin sensitization value of <0.02 μM)
19 | N#CC1CN(C(=O)C2CCN(c3c(F)cncc3NC(=O)c3c(N)nn4cc(F)cnc34)CC2)C1 [I-G-76, 2-amino-N-(4-(4-(3-cyanoazetidine-1-carbonyl)piperidin-1-yl)-5-fluoropyridin-3-yl)-6-fluoropyrazolo[1,5-a]pyrimidine-3-carboxamide] | +++ (Cisplatin sensitization value of <0.02 μM)
20 | CN(C)C1CCN(c2ccncc2NC(=O)c2c(N)nn3cc(Cl)cnc23)CC1 [I-N-37, 2-amino-6-chloro-N-(4-(4-(dimethylamino)piperidin-1-yl)pyridin-3-yl)pyrazolo[1,5-a]pyrimidine-3-carboxamide] | ++ (Cisplatin sensitization value>0.02 μM but <0.2 μM)
21 | Nc1nn2cc(Cl)cnc2c1C(=O)Nc1cnccc1N1CCC(N2CCOCC2)CC1 [I-N-104, 2-amino-6-chloro-N-(4-(4-morpholinopiperidin-1-yl)pyridin-3-yl)pyrazolo[1,5-a]pyrimidine-3-carboxamide] | +++ (Cisplatin sensitization value of <0.02 μM)
22 | Cc1cccnc1-c1ccncc1NC(=O)c1c(N)nn2cc(F)cnc12 [I-C-36, 2-amino-6-fluoro-N-(3-methyl-[2,4′-bipyridin]-3′-yl)pyrazolo[1,5-a]pyrimidine-3-carboxamide] | +++ (Cisplatin sensitization value of <0.02 μM)
23 | Nc1nn2cc(F)cnc2c1C(=O)Nc1cncc(F)c1N1CCN2CCOC[C@H]2C1 [I-N-135, (R)-2-amino-6-fluoro-N-(5-fluoro-4-(hexahydropyrazino[2,1-c][1,4]oxazin-8(1H)-yl)pyridin-3-yl)pyrazolo[1,5-a]pyrimidine-3-carboxamide] | +++ (Cisplatin sensitization value of <0.02 μM)
24 | Nc1nn2cc(F)cnc2c1C(=O)Nc1cncc(Cl)c1N1CCC(C(=O)N2CCN3CCC2C3)CC1 (stereo not shown) [I-G-69, N-(4-(4-(1,4-diazabicyclo[3.2.1]octane-4-carbonyl)piperidin-1-yl)-5-chloropyridin-3-yl)-2-amino-6-fluoropyrazolo[1,5-a]pyrimidine-3-carboxamide] | +++ (Cisplatin sensitization value of <0.02 μM)
25 | Nc1nn2cc(Cl)cnc2c1C(=O)Nc1cnccc1N1CCn2ccnc2C1 [I-N-44, 2-amino-6-chloro-N-(4-(5,6-dihydroimidazo[1,2-a]pyrazin-7(8H)-yl)pyridin-3-yl)pyrazolo[1,5-a]pyrimidine-3-carboxamide] | ++ (Cisplatin sensitization value>0.02 μM but <0.2 μM)
26 | CN1CCCCC1C(=O)N1CCN(c2c(F)cncc2NC(=O)c2c(N)nn3cc(F)cnc23)CC1 (stereo not shown) [I-N-214, 2-amino-6-fluoro-N-(5-fluoro-4-(4-(1-methylpiperidine-2-carbonyl)piperazin-1-yl)pyridin-3-yl)pyrazolo[1,5-a]pyrimidine-3-carboxamide] | ++ (Cisplatin sensitization value>0.02 μM but <0.2 μM)
27 | Nc1nn2cc(F)cnc2c1C(=O)Nc1cnccc1C1CCN(C2COC2)CC1 [I-C-10, 2-amino-6-fluoro-N-(4-(1-(oxetan-3-yl)piperidin-4-yl)pyridin-3-yl)pyrazolo[1,5-a]pyrimidine-3-carboxamide] | +++ (Cisplatin sensitization value of <0.02 μM)
28 | CN1CCN(c2ccncc2NC(=O)c2c(N)nn3cc(F)cnc23)CC1=O [I-N-209, 2-amino-6-fluoro-N-(4-(4-methyl-3-oxopiperazin-1-yl)pyridin-3-yl)pyrazolo[1,5-a]pyrimidine-3-carboxamide] | +++ (Cisplatin sensitization value of <0.02 μM)
